Experimental data from patent US11938128B2, “Small molecule BAX inhibitors and uses thereof” (Albert Einstein College of Medicine, priority 2017, dated 2024).
Where two headings read alike, the source gives them in different places. Each block holds one molecule with its values, some of them ahead of it.

Legend:
BAX [1] = biological target: BAX (Homo sapiens, UniProt Q07812); experiment: liposome release assay, tBID-induced BAX activation in liposomal membranes; assay type: biochemical
Description: FIG. 8. BAI compounds tested in BAX inhibition assay using tBID-induced BAX activation in liposomal membranes.
These compounds were hypothesized, but never shown, to work through BAX inhibition (19, 20). Accordingly, it was first investigated whether several of these small molecules inhibit BAX-mediated permeabilization of artificial membranes of similar lipid composition to the outer mitochondrial membrane (OMM). A liposome release assay (21), in which liposomes that contain a fluorophore are created, was used. Incorporation of tBID-activated BAX into the liposome membrane stimulates release of the fluorophore, providing a system to study BAX-mediated membrane permeabilization in isolation of other mitochondrial and cellular factors.
IC50 were predicted based on of “Normalized inhibition values” correlated with measured IC50 values.

BAX [2] = biological target: T1, BAX (Mus musculus, UniProt Q07813); experiment: STS-induced BAX translocation to mitochondria (immunostaining of BAX puncta); assay type: cell-based; details: data not shown
T1 construct: from tissue; host or cells: heart (myocardium) after 45 min ischemia/6 h reperfusion
Description: A key event in BAX activation is exposure of α helix 9 containing a transmembrane domain that inserts tightly into the outer mitochondrial membrane (OMM). BAX insertion into the OMM can be assessed by treating isolated mitochondria with strong alkali, which separates loosely attached proteins from mitochondria but fails to extract membrane-inserted proteins. […] One important result of BAX conformational activation is its translocation from cytosol to mitochondria. […] Translocation was assessed by immunostaining for mitochondrial BAX puncta. […] (Data not shown.)

[3] = test system: mouse embryonic fibroblasts; experiment: TNFα-induced BAX-mediated apoptotic cell death; assay type: cell-based; details: data not shown
[4] = test system: neonatal rat cardiomyocytes (NRCM); experiment: hypoxia-induced death of primary neonatal cardiomyocytes (calcein AM / ethidium homodimer); assay type: cell-based; details: for inhibition of hypoxia-induced neonatal cardiomyocyte death: percentage of EthD positive cells
Description: (§1) FIG. 6A-6C. […] Cell death was assessed using calcein AM (alive) and ethidium homodimer (dead) staining. (C) BAI1 inhibits hypoxia-induced loss of inner mitochondrial membrane potential (Δψm) in neonatal cardiomyocytes.
FIG. 20A-20B. […] Quantification of percentage of TUNEL positive cells. […] BAI-1 dose response. Percentage of dead cells represents percentage of ethidium homodimer-1 (EthD) positive cells.
FIG. 21A-21C. BAI-A1, BAI-A2 and BAI-A21 inhibit cardiomyocyte necrotic cell death. NRCM were pre-treated with varying concentrations of BAI-A1 (A), BAI-A2 (B) or BAI-A21 (C) and cultured under normoxic or hypoxic conditions. Percentage of dead cells represents percentage of EthD positive cells.

[5] = plasma protein binding, rats; assay type: in vitro ADME; details: rat
[6] = BAI-A22 pharmacokinetics in rats, non-compartmental analysis; assay type: in vivo; details: rat, plasma, iv, male Sprague Dawley rats, 1 mg/kg intravenously, NCA
Description: FIG. 11A-11B. BAI-A22 pharmacokinetics. BAI-A22 was injected intravenously in male Sprague Dawley® rats at 1 mg/kg dose and blood plasma and heart tissue were collected at different time points, and drug levels measured by LC-MS/MS. (A) Average BAI-A22 concentrations in blood plasma. (B) Average BAI-A22 concentrations in heart tissue.
Pharmacokinetic parameters from non-compartmental analysis using WinNonLin software. C0: maximum plasma concentration extrapolated to t=0; tmax: time of maximum plasma concentration; t1/2: half-life; MRTlast: mean residence time, calculated to the last observable time point; CL: clearance; Vss: steady state volume of distribution; AUClast: area under the curve, calculated to the last observable time point; AUC∞: area under the curve, extrapolated to infinity. Materials and Methods for the Chemical Syntheses

[7] = pharmacokinetic properties, half-life in plasma; assay type: in vivo
[8] = test system: mouse embryonic fibroblasts; experiment: apoptosis in mouse embryonic fibroblasts (FIG. 18); assay type: cell-based; details: doxorubicin-induced per text, STS or ABT-737 per legend
Description: FIG. 18. […] Apoptosis was induced with either staurosporine (STS) or pro-apoptotic ABT-737 drug.

[9] = acute doxorubicin heart failure model in mice; assay type: in vivo, mouse; details: doxorubicin 20 mg/kg i.p. single; inhibitor 2 mg/kg i.p. single
[10] = chronic doxorubicin-induced cardiomyopathy mouse model; assay type: in vivo; details: doxorubicin 3 mg/kg IP x8, inhibitor 2 mg/kg
Description: FIG. 25A-25B. […] (A) Hearts were collected from mice in the chronic doxorubicin model and sectioned to stain for the apoptosis marker, TUNEL. Percentage of TUNEL positive nuclei per field. (B) Hearts were collected from mice in the chronic doxorubicin model and sectioned to immunostain for HMGB1, loss of which indicates necrosis. Percentage of nuclei that lost HMGB1 per field.
Patients typically receive several “cycles” of doxorubicin administered at lower doses. The exact protocol depends on the cancer being treated. For example, some leukemias are treated with 4 cycles of 60 mg/m^2 (which would be the equivalent of 1.5 mg/kg) IV administered every 21-28 days. […] Based on this experience, a chronic protocol was used in which mice receive 3 mg/kg doxorubicin IP every other day×8 doses (i.e. over a two-week period) for a cumulative dose of 24 mg/kg.

BAX [11] = biological target: T1, BAX; experiment: BAX activation during MI/R in vivo, 6A7 antibody immunostaining; details: 45 min ischemia/6 h reperfusion, 6A7 immunostaining
Description: Accordingly, the ability of BAI-A1 to inhibit BAX activation during MI/R was tested in vivo (FIG. 7). […] The pharmacokinetics of BAI-A1 were measured in the mouse by injecting 1 mg/kg into a cohort of mice and harvesting plasma and heart tissue 0, 1, 6, and 24 h.

[12] = biological target: recombinant, purified BAX (Homo sapiens, UniProt Q07812); experiment: BAX binding by 1H-NMR and 15N-1H HSQC NMR; details: not shown
Adult rat cardiomyocytes = experiment: hypoxia/reoxygenation-induced death of adult cardiomyocytes; assay type: cell-based
Description: as §1
FIG. 22A-22B. […] Percentage of dead cells represents percentage of EthD positive cells.

[13] = plasma protein binding, mouse plasma; assay type: in vitro ADME
[14] = pharmacokinetics of BAI-A1 in the mouse; assay type: in vivo; details: other: injection (type of injection not given), 1 mg/kg
Description: Accordingly, the ability of BAI-A1 to inhibit BAX activation during MI/R was tested in vivo (FIG. 7). […] This was assessed following 45 min ischemia/6 h reperfusion, the time point that BAX is activated maximally in the absence of drug. It was concluded that BAI-A1 can access myocardial cells and is effective at inhibiting BAX activation during MI/R in vivo. The pharmacokinetics of BAI-A1 were measured in the mouse by injecting 1 mg/kg into a cohort of mice and harvesting plasma and heart tissue 0, 1, 6, and 24 h.

[15] = predicted from normalized inhibition values (5 and 10 μM, normalized to BAI1) correlated with measured IC50 values, read-out: Predicted IC50/μM
[16] = liposome release, minimum of 4 inhibitor concentrations around the IC50, read-out: Measured IC 50/μM

Sequence of BAX (Homo sapiens, UniProt Q07812) (Q07812 whole entry): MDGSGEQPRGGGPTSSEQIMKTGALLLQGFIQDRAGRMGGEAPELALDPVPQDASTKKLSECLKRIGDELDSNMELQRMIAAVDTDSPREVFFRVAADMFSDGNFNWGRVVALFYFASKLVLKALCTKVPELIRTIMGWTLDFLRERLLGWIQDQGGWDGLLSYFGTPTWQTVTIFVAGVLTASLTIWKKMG
T1 sequence (Q07813 whole entry, the tested form may be a part): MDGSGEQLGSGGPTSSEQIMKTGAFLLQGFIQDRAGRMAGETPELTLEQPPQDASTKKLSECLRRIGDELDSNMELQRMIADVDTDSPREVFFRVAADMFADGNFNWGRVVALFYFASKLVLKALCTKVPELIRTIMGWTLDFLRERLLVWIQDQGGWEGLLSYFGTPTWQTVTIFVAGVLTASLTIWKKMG
Sequence of recombinant, purified BAX (Q07812 whole entry): as the sequence (Q07812 whole entry) above

SMILES: OCCNCC(O)Cn1c2ccc(Br)cc2c2cc(Br)ccc21 (stereo not drawn) [BAI-A12]
- IC50 (BAX [1]; [15]): 8.8 µM

SMILES: OC(CN1CCN(CCCc2ccccc2)CC1)Cn1c2ccc(Br)cc2c2cc(Br)ccc21 (stereo not drawn) [BAI-3]
- inhibition of membrane permeabilization induced by tBID-activated BAX (BAX [1]; FIG. 2): not effective to inhibit tBID-induced BAX activation
- fluorophore release by compound alone (BAX [1]; compound alone, without BAX/tBID): do not stimulate fluorophore release

SMILES: OCCN1CCN(CCCN2c3ccccc3Sc3ccccc32)CC1 [BAI-A15]
- IC50 (BAX [1]; [16]): 6 µM
- IC50 (BAX [1]; [15]): 11.7 µM

SMILES: CN1CCN(CC(O)CN2c3ccccc3Sc3ccccc32)CC1 (stereo not drawn) [BAI-A13]
- IC50 (BAX [1]; [16]): 13 µM
- IC50 (BAX [1]; [15]): 13.8 µM

SMILES: O=C(O)CCn1c2ccc(Br)cc2c2cc(Br)ccc21 [BAI-A11]
- IC50 (BAX [1]; [15]): 10.4 µM

SMILES: OCCN(CCO)CC(O)CN1c2ccccc2Sc2ccccc21 (stereo not drawn) [BAI-A14]
- IC50 (BAX [1]; [15]): 15.3 µM

SMILES: OCCN(CCO)CC(O)Cn1c2ccc(Cl)cc2c2cc(Cl)ccc21 (stereo not drawn) [BAI-A9]
- IC50 (BAX [1]; [15]): 9.7 µM

SMILES: OCC(O)Cn1c2ccc(Br)cc2c2cc(Br)ccc21 (stereo not drawn) [BAI-A10]
- IC50 (BAX [1]; [15]): 10.8 µM

SMILES: OC(CN1CCNCC1)Cn1c2ccccc2c2ccccc21 (stereo not drawn) [BAI-A1]
- IC50 (BAX [1]; [16]): 40 µM
- IC50 (BAX [1]; [15]): > 20 µM
- BAX binding relative to BAI-1 [12]: less BAX binding than BAI-1
- ability to protect neonatal cardiomyocytes against hypoxia, versus BAI-1 ([4]; not shown): only modestly decreased
- inhibition of hypoxia-induced neonatal cardiomyocyte death [4]: inhibit necrosis in cardiomyocytes in a dose-dependent manner
- inhibition of adult cardiomyocyte necrosis (Adult rat cardiomyocytes; hypoxia and reoxygenation (H/R)): inhibit necrosis in cardiomyocytes in a dose-dependent manner
- ability to protect adult cardiomyocytes against hypoxia/reoxygenation, versus BAI-1 (Adult rat cardiomyocytes; not shown): only modestly decreased
- fraction unbound [13]: 0.106
- BAX conformational activation in vivo (BAX [11]): potently blocks BAX conformational activation
- half-life ([14]; heart tissue, read-out: half-life in heart tissue (converted)): ~3.5 h
- half-life ([14]; plasma, read-out: half-life in plasma (converted)): ~3.5 h
- half-life [7]: 3.5 h

Now from value to molecule, other results behind:

- IC50 (BAX [1]; [16]): 11 µM
- BAX translocation to the mitochondria (BAX [2]): A similar result was observed
- fraction unbound [5]: 0.044
- AUC(0-t) ([6]; parameter and unit are drawings, read-out: AUClast: area under the curve, calculated to the last observable time point): 390 ± 42.7 ng·h/mL
- MRT last ([6]; parameter and unit are drawings, read-out: MRTlast: mean residence time, calculated to the last observable time point): 2.15 h
- Tmax ([6]; parameter and unit are drawings, read-out: tmax: time of maximum plasma concentration): 0 h
- Vd ([6]; parameter is a drawing, read-out: Vss: steady state volume of distribution): 10.5 L/kg
- AUC(0-inf) ([6]; unit is a drawing): 524 ng·h/mL
- Cmax ([6]; unit is a drawing): 318 ng/mL
- clearance ([6]; unit is a drawing): 31.8 mL/min/kg
- half-life ([6]; unit is a drawing): 5.04 h
- C0 ([6]; unit is a drawing, read-out: C0: maximum plasma concentration extrapolated to t=0): 318 ng/mL
- half-life [7]: 5 h
SMILES: OC(CN1CCNCC1)CN(c1ccccc1)c1ccc(Br)cc1 (stereo not drawn) [BAI-A22, 1-((4-bromophenyl)(phenyl)amino)-3-(piperazin-1-yl)propan-2-ol]
- nuclear fragmentation [3]: Nuclear fragmentation was also inhibited
- inhibition of hypoxia-induced neonatal cardiomyocyte death [4]: potently inhibits primary neonatal cardiomyocyte death induced by hypoxia
- apoptosis in mouse embryonic fibroblasts [8]: inhibits doxorubicin-induced apoptosis in mouse embryonic fibroblasts
- heart function (ejection fraction) in doxorubicin-treated mice [9]: therapeutically effective
- cardiac dysfunction (fractional shortening, ejection fraction, systolic wall thickening) [10]: significantly protected the heart from cardiac dysfunction

- IC50 (BAX [1]; [16]): 27 µM
SMILES: Cc1ccc2c(c1)c1cc(C)ccc1n2CC(O)CN1CCNCC1 (stereo not drawn) [BAI-A17]

- IC50 (BAX [1]; [16]): > 100 µM
SMILES: Cc1cn(CC(O)CN2CCNCC2)c2ccccc12 (stereo not drawn) [BAI-A20]
- inhibition of hypoxia-induced neonatal cardiomyocyte death [4]: does not

- IC50 (BAX [1]; [16]): 18 µM
SMILES: OC(CN1CCNCC1)Cn1c2ccc(F)cc2c2cc(F)ccc21 (stereo not drawn) [BAI-A16]

- IC50 (BAX [1]; [16]): 4.5 µM
SMILES: OC(CN1CCNCC1)CN(c1ccc(Br)cc1)c1ccc(Br)cc1 (stereo not drawn) [BAI-A21]
- inhibition of hypoxia-induced neonatal cardiomyocyte death [4]: inhibit necrosis in cardiomyocytes in a dose-dependent manner

- IC50 (BAX [1]; [16]): 26 µM
- BAX conformational activation in vivo (BAX [11]): inhibition of BAX activation in vivo
SMILES: Cc1ccc(N(CC(O)CN2CCNCC2)c2ccc(C)cc2)cc1 (stereo not drawn) [BAI-A19]
- inhibition of hypoxia-induced neonatal cardiomyocyte death [4]: potently inhibits primary neonatal cardiomyocyte death induced by hypoxia

- IC50 (BAX [1]; [16]): 15 µM
SMILES: OC(CN1CCNCC1)Cn1c2ccc(C(F)(F)F)cc2c2cc(C(F)(F)F)ccc21 (stereo not drawn) [BAI-A18]
